Measured values from patent publication US12065436B2, “Cardiac sarcomere inhibitors” (Cytokinetics, Inc., priority 2018, dated 2024).

Biological target: bovine cardiac myofibrils (full-length cardiac myosin ATPase in the native sarcomere) (Bos taurus (Bovine), UniProt Q9BE39)
Assay: Skinned bovine cardiac myofibril ATPase assay (PK/LDH-coupled)
Type: biochemical
Settings: Ca2+ activating to 75% of maximal rate; for CDMF75 IC15: concentration giving 15% inhibition; for IC50: read-out: CDMF75 IC50
Description: To evaluate the effect of compounds on the ATPase activity of full-length cardiac myosin in the context of the native sarcomere, skinned myofibril assays were performed. Bovine cardiac myofibrils were obtained by homogenizing bovine cardiac left ventricular tissue in the presence of a detergent such as triton X-100. Such treatment removes membranes and a majority of the soluble cytoplasmic proteins but leaves intact the cardiac sarcomeric acto-myosin apparatus. Myofibril preparations retain the ability to hydrolyze ATP in an Ca^2+ regulated manner. ATPase activities of such myofibril preparations in the presence and absence of compounds were assayed at Ca^2+ concentrations activating to a defined fraction of the maximal rate (i.e., 25%, 75%). Small molecule agents were assessed for their ability to inhibit the steady-state ATPase activity of bovine cardiac myofibrils using pyruvate kinase and lactate dehydrogenase (PK/LDH)-coupled enzyme system. This assay regenerates myosin-produced ADP into ATP by oxidizing NADH, producing an absorbance change at 340 nm. Prior to testing small molecule agents, the bovine cardiac myofibrils were assessed for their calcium responsiveness and the calcium concentration that achieves either a 50% (pCa50) or 75% (pCa75) activation of the myofibril system was chosen as the final condition for assessing the inhibitory activity of the small molecule agents. All enzymatic activity was measured in a buffered solution containing 12 mM PIPES (piperazine-N,N′-bis(2-ethanesulfonic acid), 2 mM magnesium chloride at pH 6.8 (PM 12 buffer). Final assay conditions were 1 mg/mL of bovine cardiac myofibrils, 4 U/mL pyruvate kinase, 6 U/mL lactate dehydrogenase, 50 μM ATP, 0.1 mg/mL BSA (bovine serum albumin), 10 ppm antifoam, 1 mM DTT, 0.5 mM NADH, 1.5 mM PEP, 0.6 mM EGTA, and an amount of CaCl2) sufficient to achieve either 50% or 75% activation of the myofibril ATPase activity.

bovine cardiac myofibrils (full-length cardiac myosin ATPase in the native sarcomere), sequence (Q9BE39 whole entry): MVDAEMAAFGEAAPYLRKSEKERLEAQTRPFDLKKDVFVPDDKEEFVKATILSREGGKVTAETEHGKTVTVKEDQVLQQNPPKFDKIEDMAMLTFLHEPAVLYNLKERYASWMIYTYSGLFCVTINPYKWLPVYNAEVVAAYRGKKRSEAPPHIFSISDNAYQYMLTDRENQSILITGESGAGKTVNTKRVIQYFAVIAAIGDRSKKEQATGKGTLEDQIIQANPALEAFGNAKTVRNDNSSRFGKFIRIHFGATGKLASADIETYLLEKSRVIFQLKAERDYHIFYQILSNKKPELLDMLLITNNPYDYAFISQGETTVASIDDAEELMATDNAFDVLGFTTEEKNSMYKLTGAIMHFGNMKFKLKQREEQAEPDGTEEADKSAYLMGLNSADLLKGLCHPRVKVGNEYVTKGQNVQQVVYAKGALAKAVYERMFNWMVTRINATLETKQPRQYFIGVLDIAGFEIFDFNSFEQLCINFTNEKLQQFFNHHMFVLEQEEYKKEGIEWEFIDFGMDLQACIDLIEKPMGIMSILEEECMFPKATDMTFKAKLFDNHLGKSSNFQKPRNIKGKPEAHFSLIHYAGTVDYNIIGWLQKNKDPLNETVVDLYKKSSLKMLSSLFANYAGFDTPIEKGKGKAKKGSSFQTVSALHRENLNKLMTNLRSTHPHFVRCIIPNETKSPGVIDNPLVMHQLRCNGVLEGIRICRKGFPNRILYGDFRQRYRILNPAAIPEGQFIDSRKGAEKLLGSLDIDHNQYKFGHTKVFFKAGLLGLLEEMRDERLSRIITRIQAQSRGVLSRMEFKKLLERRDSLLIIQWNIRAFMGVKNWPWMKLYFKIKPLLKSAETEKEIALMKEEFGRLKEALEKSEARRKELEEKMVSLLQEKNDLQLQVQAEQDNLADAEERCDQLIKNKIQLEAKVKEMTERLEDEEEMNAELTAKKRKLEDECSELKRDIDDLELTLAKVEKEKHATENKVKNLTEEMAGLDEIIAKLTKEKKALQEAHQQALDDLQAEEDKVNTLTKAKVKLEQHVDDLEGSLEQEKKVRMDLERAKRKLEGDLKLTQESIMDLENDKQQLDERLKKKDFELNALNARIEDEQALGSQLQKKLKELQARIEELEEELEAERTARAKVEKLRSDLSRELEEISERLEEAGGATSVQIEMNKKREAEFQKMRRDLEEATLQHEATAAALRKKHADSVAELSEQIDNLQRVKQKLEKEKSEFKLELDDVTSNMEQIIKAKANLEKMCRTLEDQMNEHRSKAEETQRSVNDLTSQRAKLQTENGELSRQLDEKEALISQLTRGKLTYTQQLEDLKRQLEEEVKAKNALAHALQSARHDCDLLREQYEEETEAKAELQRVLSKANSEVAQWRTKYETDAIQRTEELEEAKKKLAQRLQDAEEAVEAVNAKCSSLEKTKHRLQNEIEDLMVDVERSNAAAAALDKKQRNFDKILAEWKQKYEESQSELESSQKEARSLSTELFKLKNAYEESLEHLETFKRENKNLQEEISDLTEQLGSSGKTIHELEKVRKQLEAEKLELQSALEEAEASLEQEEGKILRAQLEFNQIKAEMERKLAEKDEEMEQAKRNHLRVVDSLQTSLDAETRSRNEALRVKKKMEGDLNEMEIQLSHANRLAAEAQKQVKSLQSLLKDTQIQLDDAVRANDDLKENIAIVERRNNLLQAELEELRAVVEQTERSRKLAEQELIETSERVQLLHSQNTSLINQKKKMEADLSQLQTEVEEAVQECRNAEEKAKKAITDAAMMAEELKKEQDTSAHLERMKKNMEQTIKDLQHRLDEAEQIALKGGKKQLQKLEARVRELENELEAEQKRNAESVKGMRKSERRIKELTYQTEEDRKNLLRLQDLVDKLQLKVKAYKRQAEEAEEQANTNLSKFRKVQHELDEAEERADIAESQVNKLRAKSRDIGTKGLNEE
bovine cardiac myofibrils (full-length cardiac myosin ATPase in the native sarcomere), sequence (P85100 whole entry partner): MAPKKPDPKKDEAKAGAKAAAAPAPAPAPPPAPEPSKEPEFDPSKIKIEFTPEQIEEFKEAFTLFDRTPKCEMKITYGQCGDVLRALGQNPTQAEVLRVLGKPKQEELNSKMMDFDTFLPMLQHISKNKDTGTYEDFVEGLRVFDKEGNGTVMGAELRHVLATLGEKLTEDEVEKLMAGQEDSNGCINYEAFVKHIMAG
bovine cardiac myofibrils (full-length cardiac myosin ATPase in the native sarcomere), sequence (Q3SZE5 whole entry partner): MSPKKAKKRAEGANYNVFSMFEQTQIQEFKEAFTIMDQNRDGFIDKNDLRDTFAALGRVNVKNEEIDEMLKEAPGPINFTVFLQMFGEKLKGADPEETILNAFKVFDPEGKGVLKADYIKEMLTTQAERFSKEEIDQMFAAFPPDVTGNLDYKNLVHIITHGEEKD

Structure (SMILES) | CDMF75 IC15 [µM] | IC50 [µM]
CCc1nc(-c2ccc3c(c2)CC[C@H]3NC(=O)c2cnn(C3CN(C(C)=O)C3)c2)no1 [Compound 477, (R)-1-(1-acetylazetidin-3-yl)-N-(5-(5-ethyl-1,2,4-oxadiazol-3-yl)-2,3-dihydro-1H-inden-1-yl)-1H-pyrazole-4-carboxamide] | 8.5 | 39.2
Cc1cc(C(=O)N[C@@H]2CCc3cc(-c4cc(C)on4)ccc32)ccn1 [Compound 138, (R)-2-methyl-N-(5-(5-methylisoxazol-3-yl)-2,3-dihydro-1H-inden-1-yl)isonicotinamide] | 0.8 | 2.9
C=Cc1nc(-c2ccc3c(c2)CC[C@H]3NC(=O)c2cnn(C)c2)no1 [Compound 547, N-[(1R)-5-(5-vinyl(1,2,4-oxadiazol-3-yl))indanyl](1-methylpyrazol-4-yl)carboxamide] | 0.4 | 1.5
O=C(N[C@@H]1CCc2cc(-c3noc(C(F)F)n3)ccc21)C1CC1 [Compound 310, (R)-N-(5-(5-(difluoromethyl)-1,2,4-oxadiazol-3-yl)-2,3-dihydro-1H-inden-1-yl)cyclopropanecarboxamide] | 2.9 | 11.3
Cc1ncoc1C(=O)N[C@@H]1CCc2cc(-c3noc(C(F)F)n3)ccc21 [Compound 448, (R)-N-(5-(5-(difluoromethyl)-1,2,4-oxadiazol-3-yl)-2,3-dihydro-1H-inden-1-yl)-4-methyloxazole-5-carboxamide] | 0.3 | 0.9
Cc1csc(C(=O)NC2CCc3cc(-c4noc(C(F)F)n4)ccc32)n1 (stereo not shown) [Compound 60, N-(5-(5-(difluoromethyl)-1,2,4-oxadiazol-3-yl)-2,3-dihydro-1H-inden-1-yl)-4-methylthiazole-2-carboxamide] | 2.3 | 8.3
CCc1nc(-c2ccc3c(c2)CC[C@H]3NC(=O)[C@H]2COCCN2)no1 [Compound 356, (R)-N-((R)-5-(5-ethyl-1,2,4-oxadiazol-3-yl)-2,3-dihydro-1H-inden-1-yl)morpholine-3-carboxamide] | 13.4 | > 39.2
Cc1nc(-c2ccc3c(c2)CC[C@H]3NC(=O)c2nncn2C)no1 [Compound 164, (R)-4-methyl-N-(5-(5-methyl-1,2,4-oxadiazol-3-yl)-2,3-dihydro-1H-inden-1-yl)-4H-1,2,4-triazole-3-carboxamide] | 8.2 | > 39.2
CCc1nc(-c2ccc3c(c2)CCC[C@@H]3NC(=O)c2cnn(C)c2)no1 [Compound 516, (S)-N-(6-(5-ethyl-1,2,4-oxadiazol-3-yl)-1,2,3,4-tetrahydronaphthalen-1-yl)-1-methyl-1H-pyrazole-4-carboxamide] | 39.2 | 39.2
CC(CO)c1nc(-c2ccc3c(c2)CC[C@H]3NC(=O)c2ccnn2C)no1 (stereo partly drawn) [Compound 496, N-((1R)-5-(5-(1-hydroxypropan-2-yl)-1,2,4-oxadiazol-3-yl)-2,3-dihydro-1H-inden-1-yl)-1-methyl-1H-pyrazole-5-carboxamide] | 7.1 | 34.3
[2H]C([2H])([2H])c1noc(-c2ccc3c(c2)CC[C@H]3NC(=O)c2cnn(C)c2)n1 [Compound 274, (R)-1-methyl-N-(5-(3-(methyl-d3)-1,2,4-oxadiazol-5-yl)-2,3-dihydro-1H-inden-1-yl)-1H-pyrazole-4-carboxamide] | 4.0 | 15
CCc1nc(-c2ccc3c(c2)CC[C@H]3NC(=O)c2ccn(C[C@@H](C)O)c(=O)c2)no1 [Compound 560, N-((R)-5-(5-ethyl-1,2,4-oxadiazol-3-yl)-2,3-dihydro-1H-inden-1-yl)-1-((R)-2-hydroxypropyl)-2-oxo-1,2-dihydropyridine-4-carboxamide] | 1.3 | 4.7
[2H]C([2H])([2H])c1nc(-c2ccc3c(c2)CC[C@H]3NC(=O)C(F)F)no1 [Compound 442, (R)-2,2-difluoro-N-(5-(5-(methyl-d3)-1,2,4-oxadiazol-3-yl)-2,3-dihydro-1H-inden-1-yl)acetamide] | 2.5 | 12.6
CN(C)C(=O)N[C@@H]1CCc2cc(-c3noc(C(F)F)n3)ccc21 [Compound 299, (R)-3-(5-(5-(difluoromethyl)-1,2,4-oxadiazol-3-yl)-2,3-dihydro-1H-inden-1-yl)-1,1-dimethylurea] | 6.7 | 30.9
Cn1nccc1C(=O)N[C@@H]1CCc2cc(-c3cnccn3)ccc21 [Compound 368, (R)-1-methyl-N-(5-(pyrazin-2-yl)-2,3-dihydro-1H-inden-1-yl)-1H-pyrazole-5-carboxamide] | 17.6 | > 39.2
[2H]C([2H])([2H])C(=O)N[C@@H]1CCc2cc(-c3noc(CC)n3)ccc21 [Compound 446, (R)-N-(5-(5-ethyl-1,2,4-oxadiazol-3-yl)-2,3-dihydro-1H-inden-1-yl)acetamide-2,2,2-d3] | 0.7 | 2.6

Other lines, results leading:

CDMF75 IC15 [µM] | IC50 [µM] | Structure (SMILES)
0.4 | 1.5 | CCc1nc(-c2ccc3c(c2)CC[C@H]3NC(=O)c2cccnc2)no1 [Compound 624, (R)-N-(5-(5-ethyl-1,2,4-oxadiazol-3-yl)-2,3-dihydro-1H-inden-1-yl)nicotinamide]
1.1 | 5.3 | COCc1nc(-c2ccc3c(c2)CC[C@H]3NC(=O)c2ccnc(C(F)F)c2)no1 [Compound 731, (R)-2-(difluoromethyl)-N-(5-(5-(methoxymethyl)-1,2,4-oxadiazol-3-yl)-2,3-dihydro-1H-inden-1-yl)isonicotinamide]
0.7 | 1.9 | [2H]C([2H])([2H])c1nc(-c2ccc3c(c2)OC[C@H]3NC(=O)c2ccnn2C)no1 [Compound 262, (S)-1-methyl-N-(6-(5-(methyl-d3)-1,2,4-oxadiazol-3-yl)-2,3-dihydrobenzofuran-3-yl)-1H-pyrazole-5-carboxamide]
2.7 | 11 | COCc1nc(-c2ccc3c(c2)OC[C@H]3NC(=O)c2cc(CO)ccn2)no1 [Compound 713, (S)-4-(hydroxymethyl)-N-(6-(5-(methoxymethyl)-1,2,4-oxadiazol-3-yl)-2,3-dihydrobenzofuran-3-yl)picolinamide]
0.4 | 1.6 | CCc1nc(-c2ccc3c(c2)CC[C@H]3NC(=O)c2cnc(C)n2C)no1 [Compound 568, (R)-N-(5-(5-ethyl-1,2,4-oxadiazol-3-yl)-2,3-dihydro-1H-inden-1-yl)-1,2-dimethyl-1H-imidazole-5-carboxamide]
0.5 | 1.6 | Cn1cc(C(=O)N[C@@H]2COc3cc(-c4noc(C(F)F)n4)ccc32)cn1 [Compound 218, (S)-N-(6-(5-(difluoromethyl)-1,2,4-oxadiazol-3-yl)-2,3-dihydrobenzofuran-3-yl)-1-methyl-1H-pyrazole-4-carboxamide]
1.1 | 4 | COCc1nc(-c2ccc3c(c2)CC[C@H]3NC(=O)c2cnn(C)c2C)no1 [Compound 181, (R)-N-(5-(5-(methoxymethyl)-1,2,4-oxadiazol-3-yl)-2,3-dihydro-1H-inden-1-yl)-1,5-dimethyl-1H-pyrazole-4-carboxamide]
